{
  "source": "patent US20090239868A1",
  "about": "(priority 2007, published 2009)",
  "key": {"PAI-1 [1]": {"system": "PAI-1", "experiment": "PAI-1 concentration in plasma of type II diabetes patients with obesity (Human PAI-1 ELISA Kit)", "assay_type": "in vivo", "conditions": "200 mg orally twice a day for 12 weeks, plasma at 2, 4, 8, 12 weeks, FIG. 1", "experimental": "To 10 patients of the type II diabetes with obesity where PAI-1 overproduction was recognized, the compound (1) was administered orally 200 mg each time twice a day (after breakfast and after dinner) for 12 weeks. Blood was collected from each patient just before the administration of the compound (1) and 2, 4, 8, and 12 weeks later, and the PAI-1 concentration in plasma was measured using Human PAI-1 ELISA Kit (AssayPro)."}, "[2]": {"system": "mustard oil infusion rats (cystitis rat)", "experiment": "Bladder fibrosis score, mustard oil infusion rats (cystitis rat), Azan stain", "assay_type": "in vivo", "conditions": "100 mg/kg/day orally for 10 days; control 2.6±0.1; p<0.01 Wilcoxon test", "experimental": "A polyethylene tube was inserted to the urethra of the 7 week-old rats (SPF: male Crj, Charles River Japan, Inc), and 0.4 mL of 5% mustard oil (diluted with liquid paraffin including 20% allyl isothiocyanate) was infused into the bladder. 60 minutes later, after withdrawing the liquid in the bladder with suctioning, the inside of the bladder was rinsed with saline. For 10 days including 3 days before the infusion of the mustard oil and 7 days after the infusion of the mustard oil, the compound (1) (100 mg/kg/day) was orally administered once a day (Compound (1) administered rat: n=6). Furthermore, as a control, mustard oil infusion rats (cystitis rat: n=6) to which the compound (1) was not administered were prepared. On the 8th day after the infusion of the mustard, the bladders were removed to prepare paraffin sections, the degrees of fibrosis were scored by Azan stain, and the evaluations were conducted. For the index of the scoring, those that have no abnormalities to the normal tissues being “1,” those that have minor fibrosis being “2,” those that have mild fibrosis being “3,” those that have moderate fibrosis being “4,” and those that have severe fibrosis being “5” were used. As a result, although the score of the control group was 2.6±0.1, the compound (1) administered group was 2.0±0.2, and a significant difference was confirmed (p<0.01: Wilcoxon test)."}, "[3]": {"system": "cardiac infarction (ischemia-reperfusion) model rats", "experiment": "Fibrosis ratio in left ventricle cardiac muscle, cardiac infarction (ischemia-reperfusion) model rats, Azan-Mallory stain", "assay_type": "in vivo, rat", "conditions": "p.o., once a day for 28 days, control 7.5 ± 1.1", "experimental": "After the 8-week old rats (SPF: male SD, Japan SLC, Inc.) were anesthetized with Pentobarbital Sodium, their hearts were exteriorized, and the left anterior descending coronary arteries (LAD) were ligated by a suture needle with a thread. 30 minutes later, the ligations were removed, and the blood was reperfused for 24 hours. After that, the compound (1) (10 mg/kg/day, 30 mg/kg/day, 100 mg/kg/day) was orally administered once a day for 28 continuous days. Moreover, as a control, rats to which the compound (1) was not administered after the reperfusion (cardiac infarction (ischemia-reperfusion) model rats) were prepared. On the 29th day after the reperfusion, after preparing paraffin sections of cardiac muscle in the left ventricle of each rat, Azan-Mallory stain was carried out, the ratios of the stained area occupying the myocardial necrosis distant sites were obtained as the ratios of fibrosis by the image analyses."}, "PAI-1 [4]": {"system": "PAI-1", "experiment": "Immunostaining of PAI-1 expression cells among cells infiltrated in the lung, cigarette smoke exposed guinea pigs", "assay_type": "in vivo, guinea pig", "experimental": "Using the smoking exposure system (INH06-CIGOIA, MIPS Inc.), 6-week old guinea pigs (Std: male Hartley, Japan SLC, Inc.) were exposed to smoke of 40 cigarettes (Peace (Registered Trademark), Japan Tobacco, Inc.) a day (20 cigarettes twice) for 25 continuous days (Chronic Obstructive Pulmonary Disease (COPD) model group: Control group: n=10). To these guinea pigs, from the day of exposure to the smoke of tobacco, the compound (1) (30 mg/kg/day or 100 mg/kg/day) or prednisolone (10 mg/kg/day) was continuously administered orally once a day for 25 days (Compound (1) 30 mg administered group: n=5, Compound (1) 100 mg administered group: n=5, Prednisolone administered group: n=5). Furthermore, as a normal group, guinea pigs (n=5) exposed to air without the administration of the compound (1) and prednisolone were prepared. On the following day of the last exposure, after preparing paraffin sections in the lungs of each guinea pig, collagen was stained by the Masson-trichrome method, and the accumulations of collagen in the alveoli were measured by the area rate with the image analysis.\nNext, the above paraffin section was stained by the immunostaining method using an anti PAI-1 antibody (PAI-1H-135; Santa Cruz; 250-fold dilution), and the ratio of PAI-1 expression cells to the total cell numbers infiltrated in the lung was measured. […]"}},
  "note": "Entries after “also recorded” stand apart in the source; their conditions may differ.",
  "data": [
    {"smiles": "O=C(Nc1cc(C(F)(F)F)cc(C(F)(F)F)c1)c1cc(Cl)ccc1OC(=O)N1CCOCC1", "note": "[Compound (1)]", "values": [
      {"measurement": "concentration of PAI-1 in blood", "setting": "PAI-1 [1]", "result": "decreased"},
      {"measurement": "fibrosis score (1 no abnormalities to 5 severe fibrosis)", "setting": "[2]", "result": "2.0±0.2"},
      {"measurement": "Fibrosis ratio", "setting": "[3]; 10 mg/kg", "result": "5.5 ± 0.4", "unit": "%"},
      {"measurement": "Fibrosis ratio", "setting": "[3]; 30 mg/kg", "result": "4.9 ± 0.4", "unit": "%"},
      {"measurement": "Fibrosis ratio", "setting": "[3]; 100 mg/kg", "result": "4.3 ± 0.5", "unit": "%"},
      {"measurement": "total number of the infiltrating cells versus normal group", "setting": "PAI-1 [4]; compound (1) 100 mg administered group", "result": "at the same level"},
      {"measurement": "ratio of PAI-1 expression cells to the total number of infiltrating cells in the lung", "setting": "PAI-1 [4]; oral once a day for 25 days, FIG. 3", "result": "decreased; also recorded: improved to the level of the normal group"}
    ]}
  ]
}
